Columns and labels:
Assay type in all cases: binding
[1] = target: T1, GDP-loaded K-Ras (1-169) C51S, C80L, C118S (Homo sapiens, UniProt P01116, C118S/C51S/C80L); test: K-Ras WT (GDP) cross-linking assay (conjugate formation, TOF mass spectrometry); parameters: key: 0: No observed x-linking; +: 0 < x ≤ 20; ++: 20 < x ≤ 40; +++: 40 < x ≤ 100; details: Table 4; percent covalently modified K-Ras by MS; room temperature; typical compound conc. 2, 10, 25 μM, endpoints 1 and 24 h
T1 construct: GDP-loaded K-Ras (1-169) C51S, C80L, C118S
Method in brief: (§1)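 5 μM protein (final, from 50 μM) in HEPES/NaCl/MgCl2 buffer pH 7.4 with compound typically at 2, 10 and 25 μM, room temperature, 1 and 24 h endpoints; formic acid quench. Intact-protein LC–TOF MS; percent modification is covalent adduct peak height over total K-Ras peak height.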

[2] = target: T2, GDP-loaded K-Ras (1-169) G12D, C51S, C80L, C118S (Homo sapiens, UniProt P01116, C118S/C51S/C80L/G12D); test: K-Ras G12D(GDP) cross-linking assay (conjugate formation, TOF mass spectrometry); parameters: key: 0: No observed x-linking; +: 0 < x ≤ 20; ++: 20 < x ≤ 40; +++: 40 < x ≤ 100; details: Table 4; percent covalently modified K-Ras by MS; room temperature; typical compound conc. 2, 10, 25 μM, endpoints 1 and 24 h
T2 construct: GDP-loaded K-Ras (1-169) G12D, C51S, C80L, C118S
Method in brief: as §1

K-Ras G12S = K-Ras G12S (Homo sapiens, UniProt P01116, G12S); test: K-Ras G12S cross-linking assay (comparable procedure, conjugate formation, TOF mass spectrometry); parameters: key: 0: No observed x-linking; details: Table 4, percent covalently modified K-Ras by MS
Description: Protocol: K-Ras G12D(GDP) Cross-Linking Assay
Note: while the following protocol outlines the procedure for K-Ras G12D(GDP), a person of skill in the art may substitute other Ras proteins, and may also substitute a non-hydrolyzable GTP analog for GDP to study GTP bound Ras protein.
GDP-loaded K-Ras (1-169) G12D, C51S, C80L, C118S and GDP-loaded K-Ras (1-169) C51S, C80L, C118S were adjusted to 50 μM in K-Ras assay buffer (12.5 mM HEPES, 75 mM NaCl and 1 mM MgCl2 at pH 7.4). A 5 μL aliquot of each protein solution was added to each well of a 96-well microplate containing 40 μL of assay buffer. Initial compound stocks were prepared in DMSO at 100 times their final assay concentration. Compounds were then diluted 10-fold into K-Ras assay buffer to 10 times their final concentration. A 5 μL aliquot of each diluted compound solution was added to each protein solution in the 96-well microplate to initiate the reaction, which then proceeded at room temperature. Typical final compound concentrations were 2, 10, and 25 μM. At each time point, the reactions were analyzed immediately or quenched with 5 μL of a 5% formic acid solution and kept at 4° C. until analysis. Typical assay endpoints were 1 and 24 h.
Data collection took place on an Agilent 6230 TOF Mass Spectrometer. Complete reactions were injected onto a C4 reverse-phase column to separate protein from buffer components prior to entering the mass spectrometer. The proteins were eluted from the column by increasing acetonitrile fraction in the mobile phase and fed directly into the mass analyzer. Initial analysis of raw data took place in Agilent MassHunter BioConfirm software and consisted of deconvolution of multiple protein charge states with the maximum entropy algorithm, with a mass step of 1 Da. The heights of all deconvoluted protein masses were exported for further data analysis. The percent modification of each protein was then determined by calculating the peak height of the covalently modified K-Ras species as a percentage of the sum total of K-Ras protein peak height.

WT x-linking (%) [1]	G12D x-linking (%) [2]	G12S x-linking (%) (K-Ras G12S)	SMILES
+ (0 < x ≤ 20)	+ (0 < x ≤ 20)	+ (0 < x ≤ 10)	CN=C=NCCN(C)c1ncnc2c(F)c(-c3ccccc3F)c(Cl)cc12 [Example 9, 6-chloro-8-fluoro-7-(2-fluorophenyl)-N-methyl-N-(2-(((methylimino)methylene)amino)ethyl)quinazolin-4-amine]
+ (0 < x ≤ 20)	+ (0 < x ≤ 20)	+ (0 < x ≤ 10)	Fc1ccccc1-c1c(Cl)cc2c(N3CCC(NC4=NCCO4)CC3)ncnc2c1F [Example 13, N-(1-(6-chloro-8-fluoro-7-(2-fluorophenyl)quinazolin-4-yl)piperidin-4-yl)-4,5-dihydrooxazol-2-amine]
+ (0 < x ≤ 20)	+ (0 < x ≤ 20)	+ (0 < x ≤ 10)	Fc1ccccc1-c1c(Cl)cc2c(N3CCN(C4=NCCO4)CC3)ncnc2c1F [Example 14, 2-(4-(6-chloro-8-fluoro-7-(2-fluorophenyl)quinazolin-4-yl)piperazin-1-yl)-4,5-dihydrooxazole]
+ (0 < x ≤ 20)	+ (0 < x ≤ 20)	+ (0 < x ≤ 10)	Fc1ccccc1-c1c(Cl)cc2c(NCCNC3=NCCO3)ncnc2c1F [Example 15, N-(6-chloro-8-fluoro-7-(2-fluorophenyl)quinazolin-4-yl)-N^2-(4,5-dihydrooxazol-2-yl)ethane-1,2-diamine]
+ (0 < x ≤ 20)	+ (0 < x ≤ 20)	+ (0 < x ≤ 10)	CC(=O)N1CC1C(=O)N1CCN(c2ncnc3c(F)c(-c4ccccc4F)c(Cl)cc23)CC1 (stereo not drawn) [Example 17, 1-(2-(4-(6-chloro-8-fluoro-7-(2-fluorophenyl)quinazolin-4-yl)piperazine-1-carbonyl)aziridin-1-yl)ethan-1-one]
0	0	0	O=C(C1CCN(c2ncnc3c(F)c(-c4ccccc4F)c(Cl)cc23)CC1)C(F)(F)F [Example 18, 1-(1-(6-chloro-8-fluoro-7-(2-fluorophenyl)quinazolin-4-yl)piperidin-4-yl)-2,2,2-trifluoroethan-1-one]
0	0	0	OB(O)C1CCN(c2ncnc3c(F)c(-c4ccccc4F)c(Cl)cc23)CC1 [Example 19, (1-(6-chloro-8-fluoro-7-(2-fluorophenyl)quinazolin-4-yl)piperidin-4-yl)boronic Acid]
++ (20 < x ≤ 100)	+++ (40 < x ≤ 100)	++ (10 < x ≤ 100)	COCCN=C=NC1CCN(c2nc(OC[C@@H]3CCCN3C)nc3c2CCN(c2cccc4cccc(C)c24)C3)CC1 [Example 20, N-(2-methoxyethyl)-N-(1-(7-(8-methylnaphthalen-1-yl)-2-(((S)-1-methylpyrrolidin-2-yl)methoxy)-5,6,7,8-tetrahydropyrido[3,4-d]pyrimidin-4-yl)piperidin-4-yl)methanediimine]
++ (20 < x ≤ 100)	+++ (40 < x ≤ 100)	++ (10 < x ≤ 100)	CN=C=NC1CCN(c2nc(OC[C@@H]3CCCN3C)nc3c2CCN(c2cccc4cccc(C)c24)C3)CC1 [Example 21, N-methyl-N-(1-(7-(8-methylnaphthalen-1-yl)-2-(((S)-1-methylpyrrolidin-2-yl)methoxy)-5,6,7,8-tetrahydropyrido[3,4-d]pyrimidin-4-yl)piperidin-4-yl)methanediimine]
++ (20 < x ≤ 100)	+++ (40 < x ≤ 100)	++ (10 < x ≤ 100)	CCCN=C=NC1CCN(c2nc(OC[C@@H]3CCCN3C)nc3c2CCN(c2cccc4cccc(C)c24)C3)CC1 [Example 22, N-(1-(7-(8-methylnaphthalen-1-yl)-2-(((S)-1-methylpyrrolidin-2-yl)methoxy)-5,6,7,8-tetrahydropyrido[3,4-d]pyrimidin-4-yl)piperidin-4-yl)-N-propylmethanediimine]
+ (0 < x ≤ 20)	++ (20 < x ≤ 40)	++ (10 < x ≤ 100)	Cc1cccc2cccc(N3CCc4c(nc(OC[C@@H]5CCCN5C)nc4N4CCC(N=C=NC(C)C)CC4)C3)c12 [Example 23, N-isopropyl-N-(1-(7-(8-methylnaphthalen-1-yl)-2-(((S)-1-methylpyrrolidin-2-yl)methoxy)-5,6,7,8-tetrahydropyrido[3,4-d]pyrimidin-4-yl)piperidin-4-yl)methanediimine]
+ (0 < x ≤ 20)	+ (0 < x ≤ 20)	+ (0 < x ≤ 10)	Cc1cccc2cccc(N3CCc4c(nc(OC[C@@H]5CCCN5C)nc4N4CCC(N=C=NCc5ccccc5)CC4)C3)c12 [Example 24, N-benzyl-N-(1-(7-(8-methylnaphthalen-1-yl)-2-(((S)-1-methylpyrrolidin-2-yl)methoxy)-5,6,7,8-tetrahydropyrido[3,4-d]pyrimidin-4-yl)piperidin-4-yl)methanediimine]
++ (20 < x ≤ 100)	+++ (40 < x ≤ 100)	++ (10 < x ≤ 100)	COCCCN=C=NC1CCN(c2nc(OC[C@@H]3CCCN3C)nc3c2CCN(c2cccc4cccc(C)c24)C3)CC1 [Example 25, N-(3-methoxypropyl)-N-(1-(7-(8-methylnaphthalen-1-yl)-2-(((S)-1-methylpyrrolidin-2-yl)methoxy)-5,6,7,8-tetrahydropyrido[3,4-d]pyrimidin-4-yl)piperidin-4-yl)methanediimine]
++ (20 < x ≤ 100)	+++ (40 < x ≤ 100)	++ (10 < x ≤ 100)	CCCN=C=NCCN(C)c1nc(OC[C@@H]2CCCN2C)nc2c1CCN(c1cccc3cccc(C)c13)C2 [Example 26, N-methyl-7-(8-methylnaphthalen-1-yl)-2-(((S)-1-methylpyrrolidin-2-yl)methoxy)-N-(2-(((propylimino)methylene)amino)ethyl)-5,6,7,8-tetrahydropyrido[3,4-d]pyrimidin-4-amine]
+ (0 < x ≤ 20)	++ (20 < x ≤ 40)	++ (10 < x ≤ 100)	Cc1cccc2cccc(N3CCc4c(nc(OC[C@@H]5CCCN5C)nc4N(C)CCN=C=NCc4ccccc4)C3)c12 [Example 27, N-(2-(((benzylimino)methylene)amino)ethyl)-N-methyl-7-(8-methylnaphthalen-1-yl)-2-(((S)-1-methylpyrrolidin-2-yl)methoxy)-5,6,7,8-tetrahydropyrido[3,4-d]pyrimidin-4-amine]

SMILES	WT x-linking (%) [1]	G12D x-linking (%) [2]	G12S x-linking (%) (K-Ras G12S)
O=C(NCCCl)NC1CCN(c2ncnc3c(F)c(-c4ccccc4F)c(Cl)cc23)CC1 [Example 10, 1-(1-(6-chloro-8-fluoro-7-(2-fluorophenyl)quinazolin-4-yl)piperidin-4-yl)-3-(2-chloroethyl)urea]	+ (0 < x ≤ 20)	+ (0 < x ≤ 20)	+ (0 < x ≤ 10)
O=C(NCCCl)NCCNc1ncnc2c(F)c(-c3ccccc3F)c(Cl)cc12 [Example 12, 1-(2-((6-chloro-8-fluoro-7-(2-fluorophenyl)quinazolin-4-yl)amino)ethyl)-3-(2-chloroethyl)urea]	0	0	0
O=C(C1CN1)N1CCN(c2ncnc3c(F)c(-c4ccccc4F)c(Cl)cc23)CC1 (stereo not drawn) [Example 16, aziridin-2-yl(4-(6-chloro-8-fluoro-7-(2-fluorophenyl)quinazolin-4-yl)piperazin-1-yl)methanone]	+ (0 < x ≤ 20)	+ (0 < x ≤ 20)	+ (0 < x ≤ 10)

— patent US20230100838A1 (Revolution Medicines, Inc., priority 2019, published 2023)
